Laboratory results from patent US20230095520A1, “PHARMACEUTICAL COMPOSITION FOR PREVENTING OR TREATING CANCER COMPRISING AZOLE DERIVATIVES OR PHARMACEUTICALLY ACCEPTABLE SALT THEREOF” (Yungjin Pharm. Co., Ltd., priority 2020, published 2023).

Tested on: MV-4-11 cells
Assay: MV-4-11 cell proliferation inhibition (CCK-8)
Assay type: cell-based
Details: Homo sapiens, 72 hours; for inhibition at 0.1 µM: MV4-11, MV-4-11, compound concentration 100 nM, read-out: Inhibition rate (%); for IC50: MV4-11, MV-4-11 proliferation
Description: MV-4-11 cells are one of the acute myeloid leukemia cells with a Fms-like tyrosine kinase (FLT3) gene mutation, and these cells are used to test inhibition of proliferation and survival of leukemia cells.
MV-4-11 cells cultured in a 96-well cell culture plate were treated with the compound of the present invention and cultured for 72 hours. Thereafter, the antiproliferative effect of the compound was assayed by the CCK-8 method using a tetrazolium salt.

C=CC(=O)Nc1ccc(-c2cccc(C(C)C(=O)Nc3ncc(C)s3)c2)cn1 (stereo not drawn) [Compound 1, N-(5-(3-(1-((5-methylthiazol-2-yl)amino)-1-oxopropan-2-yl)phenyl)pyridin-2-yl)acrylamide]
inhibition at 0.1 µM: 80%

C=CC(=O)Nc1ccc(-c2cccc(C(C)C(=O)Nc3ncc(CC)s3)c2)cn1 (stereo not drawn) [Compound 4, N-(5-(3-(1-((5-ethylthiazol-2-yl)amino)-1-oxopropan-2-yl)phenyl)pyridin-2yl)acrylamide]
inhibition at 0.1 µM: 100% | IC50: 50.8 nM

CCc1cnc(NC(=O)[C@@H](C)c2cccc(-c3ccc(NC(=O)/C=C/CN(C)C)nc3)c2)s1 [Compound 17, (S,E)-4-(dimethylamino)-N-(5-(3-(1-((5-ethylthiazol-2-yl)amino)-1-oxopropan-2-yl)phenyl)pyridin-2-yl)but-2-enamide]
inhibition at 0.1 µM: 100%

C=CC(=O)Nc1ccc(-c2cccc([C@H](C)C(=O)Nc3ncc(C#N)s3)c2)cn1 [Compound 18, (S)-N-(5-(3-(1-((5-cyanothiazol-2-yl)amino)-1-oxopropan-2-yl)phenyl)pyridin-2-yl)acrylamide]
inhibition at 0.1 µM: 67%

C=CC(=O)Nc1ccc(-c2cccc([C@H](CC)C(=O)Nc3ncc(CC)s3)c2)cn1 [Compound 19, (S)-2-(3-(6-acrylamidopyridin-3-yl)phenyl)-N-(5-ethylthiazol-2-yl)butanamide]
inhibition at 0.1 µM: 75%

C[C@H](C(=O)Nc1ncc(C#N)s1)c1cccc(-c2ccc(NC(=O)/C=C/CN(C)C)nc2)c1 [Compound 21, (S,E)-N-(5-(3-(1-((5-cyanothiazol-2-yl)amino)-1-oxopropan-2-yl)phenyl)pyridin-2-yl)-4-(dimethylamino)but-2-enamide]
inhibition at 0.1 µM: 84%

C=CC(=O)Nc1cnc(-c2cccc([C@H](C)C(=O)Nc3ncc(C#N)s3)c2)cn1 [Compound 25, (S)-N-(5-(3-(1-((5-cyanothiazol-2-yl)amino)-1-oxopropan-2-yl)phenyl)pyrazin-2-yl)acrylamide]
inhibition at 0.1 µM: 100%

C=CC(=O)Nc1ccc(-c2cccc([C@H](C)C(=O)Nc3ncc(CC)s3)c2)cc1C#N [Compound 30, (S)-N-(3-cyano-3′-(1-((5-ethylthiazol-2-yl)amino)-1-oxopropan-2-yl)-[1,1′-biphenyl]-4-yl)acrylamide]
inhibition at 0.1 µM: 96%

C=CC(=O)Nc1ccc(-c2cccc([C@H](C)C(=O)Nc3ncc(CC)s3)c2)c(F)n1 [Compound 31, (S)-N-(5-(3-(1-((5-ethylthiazol-2-yl)amino)-1-oxopropan-2-yl)phenyl)-6-fluoropyridin-2-yl)acrylamide]
inhibition at 0.1 µM: 98%

C=CC(=O)Nc1ccc(-c2cccc([C@H](C)C(=O)Nc3ncc(C#N)s3)c2)nn1 [Compound 32, (S)-N-(6-(3-(1-((5-cyanothiazol-2-yl)amino)-1-oxopropan-2-yl)phenyl)pyridazin-3-yl)acrylamide]
inhibition at 0.1 µM: 100%

C=CC(=O)Nc1ncc(-c2cccc([C@H](C)C(=O)Nc3ncc(C#N)s3)c2)cc1F [Compound 33, (S)-N-(5-(3-(1-((5-cyanothiazol-2-yl)amino)-1-oxopropan-2-yl)phenyl)-3-fluoropyridin-2-yl)acrylamide]
inhibition at 0.1 µM: 100%

C=CC(=O)Nc1ncc(-c2cccc([C@H](C)C(=O)Nc3ncc(C#N)s3)c2)nc1C [Compound 34, (S)-N-(5-(3-(1-((5-cyanothiazol-2-yl)amino)-1-oxopropan-2-yl)phenyl)-3-methylpyrazin-2-yl)acrylamide]
inhibition at 0.1 µM: 80%

C=CC(=O)Nc1ccc(-c2cccc([C@H](C)C(=O)Nc3ncc(C(C)C)s3)c2)cn1 [Compound 35, (S)-N-(5-(3-(1-((5-isopropylthiazol-2-yl)amino)-1-oxopropan-2-yl)phenyl)pyridin-2-yl)acrylamide]
inhibition at 0.1 µM: 98%

C=CC(=O)Nc1cnc(-c2cccc([C@H](C)C(=O)Nc3ncc(C(C)C)s3)c2)cn1 [Compound 36, (S)-N-(5-(3-(1-((5-isopropylthiazol-2-yl)amino)-1-oxopropan-2-yl)phenyl)pyrazin-2-yl)acrylamide]
inhibition at 0.1 µM: 100%

C=CC(=O)Nc1ccc(-c2cccc([C@H](C)C(=O)Nc3ncc(C(F)(F)F)s3)c2)cn1 [Compound 38, (S)-N-(5-(3-(1-oxo-1-((5-(trifluoromethyl)thiazol-2-yl)amino)propan-2-yl)phenyl)pyridin-2-yl)acrylamide]
inhibition at 0.1 µM: 98%

C=CC(=O)Nc1ccc(-c2cccc([C@H](C)C(=O)Nc3ncc(C(F)(F)F)s3)c2)nn1 [Compound 39, (S)-N-(6-(3-(1-oxo-1-((5-(trifluoromethyl)thiazol-2-yl)amino)propan-2-yl)phenyl)pyridazin-3-yl)acrylamide]
inhibition at 0.1 µM: 100% | IC50: 30 nM

C=CC(=O)Nc1ccc(-c2cccc([C@H](C)C(=O)Nc3ncc(C(C)C)s3)c2)nn1 [Compound 40, (S)-N-(6-(3-(1-((5-isopropylthiazol-2-yl)amino)-1-oxopropan-2-yl)phenyl)pyridazin-3-yl)acrylamide]
inhibition at 0.1 µM: 100% | IC50: 27.8 nM

C=CC(=O)Nc1ccc(-c2cncc(C(C)C(=O)Nc3ncc(C#N)s3)c2)cn1 (stereo not drawn) [Compound 41, N-(5′-(1-((5-cyanothiazol-2-yl)amino)-1-oxopropan-2-yl)-[3,3′-bipyridin]-6-yl)acrylamide]
inhibition at 0.1 µM: 100%

C=CC(=O)Nc1ccc(-c2cc(C(C)C(=O)Nc3ncc(C#N)s3)ccn2)cn1 (stereo not drawn) [Compound 42, N-(4-(1-((5-cyanothiazol-2-yl)amino)-1-oxopropan-2-yl)-[2,3′-bipyridin]-6′-yl)acrylamide]
inhibition at 0.1 µM: 100%

C=CC(=O)Nc1cnc(-c2cncc(C(C)C(=O)Nc3ncc(C4CC4)s3)c2)cn1 (stereo not drawn) [Compound 43, N-(5-(5-(1-((5-cyclopropylthiazol-2-yl)amino)-1-oxopropan-2-yl)pyridin-3-yl)pyrazin-2-yl)acrylamide]
inhibition at 0.1 µM: 100% | IC50: 24.6 nM

C=CC(=O)Nc1cnc(-c2cncc(C(C)C(=O)Nc3ncc(C#N)s3)c2)cn1 (stereo not drawn) [Compound 44, N-(5-(5-(1-((5-cyanothiazol-2-yl)amino)-1-oxopropan-2-yl)pyridin-3-yl)pyrazin-2-yl)acrylamide]
inhibition at 0.1 µM: 100% | IC50: 54.4 nM

C=CC(=O)Nc1cnc(-c2cncc(C(C)C(=O)Nc3ncc(CC)s3)c2)cn1 (stereo not drawn) [Compound 46, N-(5-(5-(1-((5-ethylthiazol-2-yl)amino)-1-oxopropan-2-yl)pyridin-3-yl)pyrazin-2-yl)acrylamide]
inhibition at 0.1 µM: 100% | IC50: 9.1 nM

C=CC(=O)Nc1cnc(-c2cncc(C(C)C(=O)Nc3ncc(C(C)C)s3)c2)cn1 (stereo not drawn) [Compound 47, N-(5-(5-(1-((5-isopropylthiazol-2-yl)amino)-1-oxopropan-2-yl)pyridin-3-yl)pyrazin-2-yl)acrylamide]
inhibition at 0.1 µM: 100% | IC50: 12.2 nM

C=CC(=O)Nc1cnc(-c2cncc(C(C)C(=O)Nc3ncc(C(C)=O)s3)c2)cn1 (stereo not drawn) [Compound 48, N-(5-(5-(1-((5-acetylthiazol-2-yl)amino)-1-oxopropan-2-yl)pyridin-3-yl)pyrazin-2-yl)acrylamide]
inhibition at 0.1 µM: 100%

C=CC(=O)Nc1ccc(-c2cncc(C(C)C(=O)Nc3ncc(C(F)(F)F)s3)c2)nn1 (stereo not drawn) [Compound 49, N-(6-(5-(1-oxo-1-((5-(trifluoromethyl)thiazol-2-yl)amino)propan-2-yl)pyridin-3-yl)pyridazin-3-yl)acrylamide]
inhibition at 0.1 µM: 100% | IC50: 18.7 nM
